The text below walks through data of patent US20220325239A1, “CELL CULTURE” (AGENCY FOR SCIENCE, TECHNOLOGY AND RESEARCH, priority 2019, published 2022).

The test system of one data set is FINE cells. In words: Withdrawal or replacement of AZD5438 / Dasatinib in FINE culture. It counts as cell-based, human. As to conditions: for sustaining feeder-free naïve hESCs when replacing Dasatinib in FINE: 2 passages; for morphology after withdrawal from FINE: withdrawal for 3 passages. From the text: FIG. 4A is a diagram showing brightfield and immunofluorescence staining of KLF4, TFE3 and KLF17 in FINE culture after withdrawal of AZD, Dasa or both for 3 passages. Scale bar=50 μm.
FIG. 4B is a diagram showing quantification of fraction of nuclei positive for naïve-associated transcription factors in hESCs cultured in FINE after withdrawal of AZD, Dasa or both for 3 passages. Mean±SD of three independent experiments.
FIG. 4C is a diagram showing expression of blastocyst-associated transcripts in hESCs cultured in FINE after withdrawal of AZD, Dasa or both for 2 passages. Mean±SD of three independent qPCR experiments.
FIG. 4D and FIG. 4E are diagrams showing expression of blastocyst-associated transcripts in hESCs cultured in FINE after (D) replacement of Dasa with other Src and Bcr-Abl inhibitors or (E) replacement of AZD with Dinaciclib (in H9 line) for 2 passages. Mean±SD of three independent qPCR experiments.
Therefore, we wanted to test if both are also important for the maintenance of naivety in FINE.

Data set [1] relates to LTR7Y-zsGreen reporter cells. The data set is described as follows: High-throughput small molecule screen for feeder-free maintenance of naïve hESCs (LTR7Y-zsGreen fluorescence). It counts as cell-based, human. Conditions: 3iL without feeders. As to the method:
3,000 cells cultured in mTeSR1 (STEMCELL Technologies) or 3iL were seeded per well into 384-well plates (Greiner) coated with 30× Matrigel (Corning) or 30× growth factor reduced Matrigel (Corning) in 45 µl of medium. 4 hours after seeding, cells were treated with anti-cancer and anti-kinase libraries (Selleckchem; kinase inhibitor screening library—customised collection of 273 kinase inhibitors, anti-cancer compound library—customized collection of 349 bioactive compounds). Small molecules were used at 3 different concentrations: 100 nM, 1 μM and 10 μM for each condition. 48 hours after the treatment, culture media was renewed concomitant with a second round of treatment with the compounds. […] Images were processed and fluorescence signal was quantified using Columbus Image Data Storage and Analysis System (PerkinElmer). […] Z-score for zsGreen fluorescence was calculated using formula: z=(X−μ)/s.d. where μ—mean, s.d.—standard deviation of whole population, X−integrated intensity of zsGreen divided by total number of cells. […]
We first ensured the quality of the screen by certifying the absence of intra-plate layout biases (FIG. 8I), proper inter-plate alignment (FIG. 8J) and good correlation between replicates (FIG. 8K). Z-scores were then calculated, and compounds that reproducibly scored above noise (z>2 in at least 2 replicates) were regarded as hits (FIG. 1B, S1L). […]

For the next data set, the system named is naïve hESCs. The data set is described as follows: Naïve pluripotency marker expression after short-term supplementation of hits upon feeder withdrawal (qPCR). Format: cell-based, human. An excerpt: 3iL and 4 iLA media were supplemented with small molecule compounds at various concentrations for single and combinatory treatments. Small molecules used in the study: Dasatinib (Selleckchem), AZD5438 (TOCRIS), CHIR-98014 (Sigma), Crenolanib (Selleckchem), Saracatinib (Selleckchem), Src Inhibitor-1 (Sigma), Nilotinib (STEMCELL Technologies), Imatinib (STEMCELL Technologies), Dinaciclib (Selleckchem), WH-4-023 (Sigma).
(§1) Total RNA was extracted using TRIzol reagent (Invitrogen) according to manufacturer's protocol followed by DNAase I treatment (Ambion).
(§2) 250-1000 ng of DNAase treated RNA was reverse transcribed using SuperScript II (Invitrogen) and oligo-dT primers (Invitrogen) according to manufacturer's instructions. Reactions were performed in final volume of 20μ1. cDNA was diluted before qPCR analysis.
qPCR was performed using KAPA SYBR FAST master mix (KAPA Biosystem) following standard procedures. qPCR reactions were performed in biological duplicates or triplicates in 384-well plates on the ViiA™ 7 Real-Time PCR System (Life Technologies). Two technical replicates were carried out for each qPCR reaction and data was normalised to GAPDH. The relative abundance of transcripts was calculated using ΔΔC(T) method. […]
(In general: In qPCR the cycle at which signal appears reflects the starting amount.)

Another data set deals with cellular CDK substrates. As to conditions: cited from earlier work.
In the next data set the test system is human cancer cultures. Conditions: broad spectrum of human cancer cultures; cited from earlier work.
The test system of another data set is human tumor xenograft. As to conditions: oral, 50 mg/kg/12 h or 75 mg/kg/day, mice; cited from earlier work.
The next data set concerns hESC. In words: Adaptation and survival of feeder-free hESCs in 4iLA supplemented with chemical combinations (C1-C21). As to conditions: condition 19 background. Format: cell-based, human. From the text:
FIG. 2C is a diagram showing relative survival of hESC culture under 4 iLA supplemented with different chemical combinations conditions (C1-C21) over 9 passages without feeders. 4 iLA was included as control.
We next sought to find a condition that enables stable naïve culture by adapting feeder-free primed hESCs onto media supplemented by one or more of the hits at various concentrations (FIG. 2C, Table E2, below).

Another data set relates to H9 cells. The data set is described as follows: Karyotyping / cytogenetic analysis. Format: cell-based, human. Conditions: PD0325901 reduced from 1 μM to 0.3 μM. Here is the method:
FIG. 7B is a diagram showing summary of cytogenetic analysis of H9 cells (top) under various naïve culture conditions (rows) and passage numbers (columns). Representative karyotypes at various passage numbers in FINE (bottom).
Various hESCs lines were seeded into glass cover slip slides as single cells. Karyotyping service including colcemid treatment and G-band analysis was outsourced with Parkway Laboratory Services.

In the next data set the test system is hESCs. In words: Expression of naïve / blastocyst / 8-cell markers under culture conditions (qPCR, immunofluorescence). Format: cell-based, human. Conditions: PD0325901 reduced from 1 μM to 0.3 μM, H9. Here is the method: as §1, §2
qPCR was performed using KAPA SYBR FAST master mix (KAPA Biosystem) following standard procedures. qPCR reactions were performed in biological duplicates or triplicates in 384-well plates on the ViiA™ 7 Real-Time PCR System (Life Technologies). Two technical replicates were carried out for each qPCR reaction and data was normalised to GAPDH. The relative abundance of transcripts was calculated using ΔΔC(T) method.
Before fixation with 4% formaldehyde (Sigma) cells were washed with PBS (Gibco) in tissue culture plates (Falcon) for 30 minutes at room temperature. Permeabilization was performed with 1% of Triton-X 100 in PBS followed by blocking step performed in blocking buffer (blocking buffer—8% FBS in PBS-T (PBS-T 1% Tween in PBS)) each for 30 minutes at room temperature. Cells were incubated with primary antibodies, diluted in blocking buffer, overnight at 4° C. with gentle agitation. […]

Molecules are shown by their SMILES.

Regarding `Cc1ccc(NC(=O)c2ccc(CN3CCN(C)CC3)cc2)cc1Nc1nccc(-c2cccnc2)n1` [Imatinib], the “sustaining feeder-free naïve hESCs when replacing Dasatinib in FINE” value (“sustaining feeder-free naïve hESCs” below) in the data set with FINE cells is reported as “failed to sustain”.

In the case of `Cc1ncc(-c2ccnc(Nc3ccc(S(C)(=O)=O)cc3)n2)n1C(C)C` [AZD5438, 4-[2-Methyl-1-(1-methylethyl)-1H-imidazol-5-yl]-N-[4-(methylsulfonyl)phenyl]-2-pyrimidinamine], in data set [1], the “outcome of the screen (hit)” value is recorded as “identified novel regulators of naïve pluripotency”. Besides, the “effect on downregulation of naïve pluripotency markers including LTR7Y” value in the data set with naïve hESCs (3iL, RNA after 6 days) is listed as “consistently attenuated downregulation”. For the same compound, in the data set with FINE cells, the “morphology after withdrawal from FINE” value is “caused dispersal of the compact morphology”. In addition, the “inhibition of cellular CDK substrates phosphorylation” value in the data set with cellular CDK substrates is “effectively inhibits”. In addition, in the data set on human cancer cultures, the antiproliferation activity result was “displays antiproliferation activity”. The “efficacy against human tumor xenograft growth” value in the data set on human tumor xenograft is “efficacious”.

As to `COc1cc2ncnc(Nc3ccc(Oc4ccccc4)cc3)c2cc1OC` [SRCi], the “sustaining feeder-free naïve hESCs” value in the data set with FINE cells is “failed to sustain”.

Turning to `COc1ccc(N(C(=O)Oc2c(C)cccc2C)c2ccnc(Nc3ccc(N4CCN(C)CC4)cc3)n2)c(OC)c1` [WH-4-023], in the data set on hESC, the “requirement for adaptation and maintenance of feeder-free naïve cells” value is recorded as “dispensable”. Further, the “sustaining feeder-free naïve hESCs” value with FINE cells is recorded as “failed to sustain”.

On to `Cc1cn(-c2cc(NC(=O)c3ccc(C)c(Nc4nccc(-c5cccnc5)n4)c3)cc(C(F)(F)F)c2)cn1` [Nilotinib], for which the “sustaining feeder-free naïve hESCs” value with FINE cells was “failed to sustain”.

In the case of `Cc1nc(Nc2ncc(C(=O)Nc3c(C)cccc3Cl)s2)cc(N2CCN(CCO)CC2)n1.O` [Dasatinib, N-(2-chloro-6-methylphenyl)-2-[[6-[4-(2-hydroxyethyl)-1-piperazinyl]-2-methyl-4-pyrimidinyl]amino]-5-thiazole carboxamide monohydrate], the “outcome of the screen (hit)” value in [1] is on record as “identified novel regulators of naïve pluripotency”. Moreover, in the data set with naïve hESCs (4iLA, RNA after 12 days), the “effect on downregulation of naïve pluripotency markers” value was “had the same effect”. The “loss of naivety upon withdrawal from FINE” value in the data set on FINE cells (compared with AZD5438 withdrawal) is recorded as “more pronounced effect”. In addition, in the data set with FINE cells, the “morphology after withdrawal from FINE” value is recorded as “caused dispersal of the compact morphology”.

Regarding `O=C(NOC[C@H](O)CO)c1ccc(F)c(F)c1Nc1ccc(I)cc1F` [PD0325901, N-[(2R)-2,3-dihydroxypropoxy]-3,4-difluoro-2-(2-fluoro-4-iodoanilino)benzamide], the “effect of lowered concentration in FINE on acquisition of chromosomal abnormalities” value with H9 cells is given as “further delayed acquisition of chromosomal abnormalities”. The “effect of lowered concentration in FINE on naïve pluripotent marker expression” value in the data set with hESCs was “slight adverse effect”.
